# Assay results as given in ChEMBL document CHEMBL1157501, “Novel fluorinated acridone derivatives. Part 1: synthesis and evaluation as potential anticancer agents” (Bioorg Med Chem Lett, 2008).
# Experiments:
# SK-MEL-28 = assay: Growth inhibition of human SK-MEL-28 cells at 10 uM relative to control; format: functional
# T47D = assay: Growth inhibition of human T47D cells at 10 uM relative to control; format: functional
# HOP-92 = assay: Growth inhibition of human HOP92 cells at 10 uM relative to control; format: functional
# MOLT-4 = assay: Growth inhibition of human MOLT4 cells at 10 uM relative to control; format: functional
# SNB-75 = assay: Growth inhibition of human SNB75 cells at 10 uM relative to control; format: functional
# 786-0 = assay: Growth inhibition of human 786-0 cells at 10 uM relative to control; format: functional
# UACC-257 = assay: Growth inhibition of human UACC257 cells at 10 uM relative to control; format: functional
# [1] = Growth inhibition of human HL60(TB) cells at 10 uM relative to control; format: functional, HL-60(TB); details: HL-60
# A549 = assay: Growth inhibition of human A549 cells at 10 uM relative to control; format: functional
# SF-295 = assay: Growth inhibition of human SF295 cells at 10 uM relative to control; format: functional
# CAKI-1 = assay: Growth inhibition of human CAKI1 cells at 10 uM relative to control; format: functional
# HCT-116 = assay: Growth inhibition of human HCT116 cells at 10 uM relative to control; format: functional
# Jurkat = assay: Antiproliferative activity against human Jurkat cells after 72 hrs by Alamar Blue assay; format: functional, cell-based
# HT-29 = assay: Growth inhibition of human HT29 cells at 10 uM relative to control; format: functional
# BT-549 = assay: Antiproliferative activity against human BT549 cells after 72 hrs by alamar blue assay; format: functional, cell-based; details: BT-549, 72 h
# BT-20 = assay: Antiproliferative activity against human BT20 cells after 72 hrs by Alamar Blue assay; format: functional, cell-based; details: BT-20, 72 h
# SW480 = assay: Antiproliferative activity against human SW480 cells after 72 hrs by Alamar Blue assay; format: functional, cell-based; details: SW480, 72 h
# MCF7 = assay: Growth inhibition of human MCF7 cells at 10 uM relative to control; format: functional
# CCRF-CEM = assay: Growth inhibition of human CCRF-CEM cells at 10 uM relative to control; format: functional
SMILES,inhibition at 10 µM (SK-MEL-28) [%],inhibition at 10 µM (T47D) [%],inhibition at 10 µM (HOP-92) [%],inhibition at 10 µM (MOLT-4) [%],inhibition at 10 µM (SNB-75) [%],inhibition at 10 µM (786-0) [%],inhibition at 10 µM (UACC-257) [%],inhibition at 10 µM [1] [%],inhibition at 10 µM (A549) [%],inhibition at 10 µM (SF-295) [%],inhibition at 10 µM (CAKI-1) [%],inhibition at 10 µM (HCT-116) [%],IC50 (Jurkat) [µM],inhibition at 10 µM (HT-29) [%],IC50 (BT-549) [µM],IC50 (BT-20) [µM],IC50 (SW480) [µM],inhibition at 10 µM (MCF7) [%],inhibition at 10 µM (CCRF-CEM) [%]
Cc1c2c(nc3ccc(Cl)cc13)CC(C(F)(F)F)CC2=O (configuration not stated),< 20,43,58,95,< 20,< 20,< 20,< 20,< 20,< 20,< 20,< 20,5.1,43,12.1,6.7,15.3,95,
O=C1CC(C(F)(F)F)Cc2nc3ccc(Br)cc3c(-c3ccccc3F)c21 (configuration not stated),< 20,< 20,48,< 20,< 20,62,< 20,29,< 20,< 20,45,35,11.6,< 20,17.4,23.3,15.5,< 20,28
O=C1CC(C(F)(F)F)Cc2nc3ccccc3c(-c3ccccc3)c21 (configuration not stated),< 20,< 20,70,< 20,< 20,< 20,77,45,< 20,< 20,< 20,70,,< 20,,,,< 20,< 20
